Measured values: patent US12077778B2, “Methods of generating human inner ear sensory epithelia and sensory neurons” (INDIANA UNIVERSITY RESEARCH AND TECHNOLOGY CORPORATION, priority 2015, dated 2024)
Entries after “also recorded” stand apart in the source; their conditions may differ.

Key:
Type in all cases: cell-based, human
OEPD-induced aggregates = assay: qPCR of PAX8/PAX2 expression after WNT and FGF signaling modulation, days 8-10; conditions: one exploratory experiment
Method: Thus, we changed strategies by lengthening the initial culture phase to 12 days (with addition of fresh media on day 8) and testing the effect of transitioning the aggregates to Matrigel™ droplets.
Quantitative PCR. Analysis was performed as previously described on an ABI PRISM 7900HT Sequence Detection System (Applied Biosystems) or a Bio-Rad CFX96 quantitative PCR machine (Bio-Rad)^6. Data were normalized to L27 expression (internal control) and the fold change was calculated relative to Ct values from d0 WA25 aggregates using the ΔΔCt method. Unless stated otherwise, data represent at least 3 separate biological samples from separate experiments. All indicators of statistical significance refer to comparisons between a given condition and the control group. Refer to Table 4 for primer details.

mND2-0 iPSCs = assay: Non-neural ectoderm induction in mND2-0 iPSC aggregates
Description: (§1) Curious whether endogenous BMP activity is sufficient for non-neural specification, we performed a co-treatment with the BMP inhibitor, LDN-193189 (hereafter, LSB; dual LDN/SB treatment referred to as LSB). […] We reasoned that variation in endogenous BMP levels may underlie the different outcomes and the BMP concentration may need to be fine-tuned for each cell line. […] With either the SB or SBB approaches, the resulting epithelia closely resembled […] generated with mPSCs^5,6. In contrast to our mouse culture, non-neural conversion occurs without off-target induction of Brachyury (BRA)^+ mesendoderm cells (FIGS. 9A-9C). The following data were generated using either the SB (WA25) or SBB (mND2-0) approaches.
(§2) hPSC differentiation. To start differentiation, hPSC cells were dissociated with StemPro Accutase (Invitrogen) and distributed, 5,000 cells per well, onto 96-well V-bottom plates in E8 medium containing 20 μM Y-27632 (Stemgent) and Normocin. […] For some experiments, CDM containing a 18 μM CHIR99021 (3 μM final concentration; Stemgent) was added to the pre-existing 125 μl of media in each well—we determined that this treatment is optional for inner ear organoid production, but may improve induction of otic placode-like cells. […]

WA25 cell aggregates = assay: Non-neural ectoderm induction in WA25 hESC aggregates (qPCR, immunostaining)
Method: Following a 2-day incubation in E8 Medium, we transferred aggregates to CDM containing a low concentration of Matrigel and FGF-2 to stimulate epithelization and ectoderm differentiation on the aggregate surface. […] Remarkably, 100% of SB treated aggregates generated TFAP2^+ E-cadherin (ECAD)^+ epithelium with a surface ectoderm-like morphology by days 4-6 of differentiation—a time scale consistent with human embryogenesis (n=15 aggregates, 3 experiments; FIGS. 1B-1E; FIGS. 3A-3G). Over a period of 20 days, the epithelium expanded into a cyst composed of TFAP2^+ Keratin-5 (KRT5)^+ keratinocyte-like cells (FIGS. 6A-6E). From these findings, we concluded that treating WA25 cell aggregates with SB is sufficient to induce a non-neural epithelium.
as §1
as §2, with “Normocin. […] CDM contained a 50:50 mixture of F-12 Nutrient Mixture with GlutaMAX (Gibco) and Iscove's Modified Dulbecco's Medium with GlutaMAX (IMDM; Gibco) additionally supplemented with 0.5% Bovine Serum Albumin (BSA), 1× Chemically Defined Lipid Concentrate (Invitrogen), […] (Sigma), 15 μg ml^−1 Transferrin (Sigma), 450 μM Mono-Thioglycerol, and Normocin (see Table 1 for a detailed formulation).” for “Normocin.”
Quantitative PCR. Analysis was performed as previously described on an ABI PRISM 7900HT Sequence Detection System (Applied Biosystems) or a Bio-Rad CFX96 quantitative PCR machine (Bio-Rad)^6. Data were normalized to L27 expression (internal control) and the fold change was calculated relative to Ct values from d0 WA25 aggregates using the ΔΔCt method. […]

[1] = day 2, 10 μM SB, or 10 μM SB + 10 ng/ml BMP4 (SBB)

CCN(CC)CCCCNc1ncc2cc(-c3cc(OC)cc(OC)c3)c(NC(=O)NC(C)(C)C)nc2n1 [PD-173074]
PAX2 expression (qPCR) compared to DMSO controls (OEPD-induced aggregates): likely inhibits PAX2 expression

NC(=O)c1ccc(-c2nc(-c3ccc4c(c3)OCO4)c(-c3ccccn3)[nH]2)cc1 [SB, SB-431542]
cell types generated (marker immunostaining) (mND2-0 iPSCs; mND2-0 iPSCs, day 6, 10 μM SB alone or with 2.5 ng/ml BMP4): generated PAX6^+ neuroectoderm and TFAP2^+ ECAD^− neural crest-like cells | aggregates that generated TFAP2+ E-cadherin (ECAD)+ epithelium with surface ectoderm-like morphology (WA25 cell aggregates; 10 μM SB, days 4-6 of differentiation, n=15 aggregates, 3 experiments): 100% | extraembryonic marker CDX2 expression (qPCR) (WA25 cell aggregates; [1]): no corresponding CDX2 expression | non-neural marker genes TFAP2 and DLX3 expression (qPCR) (WA25 cell aggregates; [1]): upregulated; also recorded: increase in TFAP2 and DLX3 expression

Oc1nc(-c2ccc(C(F)(F)F)cc2)nc2c1CSCC2 [XAV939]
PAX2 expression (qPCR) compared to DMSO controls (OEPD-induced aggregates): only had a modest positive or negative impact on PAX2 expression

B1: BMP4: recombinant human BMP4, agonist of BMP signaling (protein, UniProt P12644 293-408, looked up)
Bone morphogenetic protein 4: SPKHHSQRARKKNKNCRRHSLYVDFSDVGWNDWIVAPPGYQAFYCHGDCPFPLADHLNSTNHAIVQTLVNSVNSSIPKACCVPTELSAISMLYLDEYDKVVLKNYQEMVVEGCGCR
minimum BMP concentration that produced the morphological changes (translucent sphere) (mND2-0 iPSCs; mND2-0 iPSCs with SB, 1.25-40 ng/ml tested, preliminary experiment): 2.5 ng/ml | mesendoderm markers BRA and EOMES expression (qPCR) (WA25 cell aggregates; day 2, BMP4 (B) treatment): upregulated
